Where two headings read alike, the source gives them in different places.
How the values were obtained:
Format in all cases: cell-based
[1] = tested on: IFN-g secretion from T cells in human whole blood
[2] = target: hKv1.3 (Homo sapiens, UniProt P22001); experiment: cell-based; conditions: Kv1.3 (IWQ) IC50 (nM, Avg)
[3] = tested on: IL-2 secretion from T cells in human whole blood; conditions: read-out: WB (IL-2) IC50 (nM, Avg)
[4] = read-out: WB (IFNg) IC50 (nM, Avg)
[5] = read-out: WB (IFNg) IC5- (nM, Avg)

Chain of hKv1.3 (P22001 whole entry): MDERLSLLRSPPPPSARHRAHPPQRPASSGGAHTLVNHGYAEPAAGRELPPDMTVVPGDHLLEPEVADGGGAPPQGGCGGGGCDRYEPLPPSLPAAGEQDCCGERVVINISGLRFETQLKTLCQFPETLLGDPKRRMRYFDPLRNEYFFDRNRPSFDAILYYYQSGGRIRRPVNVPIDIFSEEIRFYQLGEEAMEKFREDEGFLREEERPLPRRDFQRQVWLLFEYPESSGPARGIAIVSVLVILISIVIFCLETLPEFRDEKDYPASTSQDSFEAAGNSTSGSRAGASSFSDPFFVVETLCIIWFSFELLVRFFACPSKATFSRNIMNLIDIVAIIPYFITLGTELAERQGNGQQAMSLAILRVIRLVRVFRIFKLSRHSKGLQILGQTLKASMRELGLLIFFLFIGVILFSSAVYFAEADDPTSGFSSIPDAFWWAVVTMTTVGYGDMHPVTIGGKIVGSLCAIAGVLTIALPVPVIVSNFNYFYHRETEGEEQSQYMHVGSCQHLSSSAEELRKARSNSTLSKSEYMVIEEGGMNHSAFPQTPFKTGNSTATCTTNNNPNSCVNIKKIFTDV

| Structure (SMILES) | IC50 [1, 4] [nM] | IC50 [2] [nM] | IC50 [3] [nM] | IC50 [1, 5] [nM] |
| --- | --- | --- | --- | --- |
| CC[C@H](C)[C@@H]1NC(=O)[C@@H](NC(=O)[C@H](CO)NC(=O)[C@@H](N)CCCNC(=N)N)CSSC[C@@H](C(N)=O)NC(=O)[C@H]([C@@H](C)O)NC(=O)CNC(=O)[C@@H]2CSSC[C@@H]3NC(=O)[C@H](CCCCN)NC(=O)[C@H](Cc4ccccc4)NC(=O)[C@H](C)NC(=O)[C@H]([C@@H](C)O)NC(=O)[C@H](CSSC[C@H](NC(=O)[C@H](Cc4ccccc4)NC(=O)[C@H](CO)NC(=O)[C@H](CC(C)C)NC(=O)[C@H](CCCNC(=N)N)NC(=O)[C@H](Cc4ccc(O)cc4)NC(=O)[C@H](CCCCN)NC(=O)[C@H](Cc4c[nH]cn4)NC(=O)[C@H](CO)NC(=O)[C@H](Cc4c[nH]cn4)NC(=O)[C@H](CCCCN)NC3=O)C(=O)N[C@@H](CCCNC(=N)N)C(=O)N[C@@H](CCCCN)C(=O)N[C@@H]([C@@H](C)O)C(=O)N2)NC(=O)[C@H](CCCNC(=N)N)NC(=O)[C@H](CO)NC(=O)[C@H](CCCCN)NC(=O)[C@@H]2CCCN2C(=O)[C@H]([C@@H](C)CC)NC(=O)[C@H]([C@@H](C)O)NC(=O)[C@H](CC(=O)O)NC1=O [[Lys16, His21]ShK-amide] | 9.25 | 0.219 | 5.5 | – |
| CC[C@H](C)[C@@H]1NC(=O)[C@H]([C@@H](C)O)NC(=O)[C@H](CC(=O)O)NC(=O)[C@H](CCC(=O)O)NC(=O)[C@@H](NC(=O)[C@H](CO)NC(=O)[C@@H](N)CCCNC(=N)N)CSSC[C@@H](C(N)=O)NC(=O)[C@H]([C@@H](C)O)NC(=O)CNC(=O)[C@@H]2CSSC[C@@H]3NC(=O)[C@H](CCCCN)NC(=O)[C@H](Cc4ccccc4)NC(=O)[C@H](C)NC(=O)[C@H]([C@@H](C)O)NC(=O)[C@H](CSSC[C@H](NC(=O)[C@H](Cc4ccccc4)NC(=O)[C@H](CO)NC(=O)[C@H](CC(C)C)NC(=O)[C@H](CCCNC(=N)N)NC(=O)[C@H](Cc4ccc(O)cc4)NC(=O)[C@H](CCCCN)NC(=O)[C@H]([C@@H](C)O)NC(=O)[C@H](CO)NC(=O)[C@H](Cc4c[nH]cn4)NC(=O)[C@H](CCCCN)NC3=O)C(=O)N[C@@H](CCCNC(=N)N)C(=O)N[C@@H](CCCCN)C(=O)N[C@@H]([C@@H](C)O)C(=O)N2)NC(=O)[C@H](CCCNC(=N)N)NC(=O)[C@H](CO)NC(=O)[C@H](CCCCN)NC(=O)[C@@H]2CCCN2C1=O [[Glu4, Lys16,Thr21]ShK-amide] | 3.94 | 0.085 | 1.38 | – |
| CC[C@H](C)[C@@H]1NC(=O)[C@@H](NC(=O)[C@H](CO)NC(=O)[C@@H](N)CCCNC(=N)N)CSSC[C@@H](C(=O)O)NC(=O)[C@H]([C@@H](C)O)NC(=O)CNC(=O)[C@@H]2CSSC[C@@H]3NC(=O)[C@H](CCC(N)=O)NC(=O)[C@H](Cc4ccccc4)NC(=O)[C@H](C)NC(=O)[C@H]([C@@H](C)O)NC(=O)[C@H](CSSC[C@H](NC(=O)[C@H](Cc4ccccc4)NC(=O)[C@H](CO)NC(=O)[C@H](CC(C)C)NC(=O)[C@H](CCCNC(=N)N)NC(=O)[C@H](Cc4ccc(O)cc4)NC(=O)[C@H](CCCCN)NC(=O)[C@H](CCSC)NC(=O)[C@H](CO)NC(=O)[C@H](Cc4c[nH]cn4)NC(=O)[C@H](CCCCN)NC3=O)C(=O)N[C@@H](CCCNC(=N)N)C(=O)N[C@@H](CCCCN)C(=O)N[C@@H]([C@@H](C)O)C(=O)N2)NC(=O)[C@H](CCC(=O)O)NC(=O)[C@H](CO)NC(=O)[C@H](CCCCN)NC(=O)[C@@H]2CCCN2C(=O)[C@H]([C@@H](C)CC)NC(=O)[C@H]([C@@H](C)O)NC(=O)[C@H](CC(=O)O)NC1=O [[Glu11]ShK] | – | 0.969 | 1.32 | 4.54 |
| CCC[C@@H]1NC(=O)[C@H](CO)NC(=O)[C@H](Cc2c[nH]cn2)NC(=O)[C@H](CCCCN)NC(=O)[C@@H]2CSSC[C@@H]3NC(=O)[C@H]([C@@H](C)O)NC(=O)[C@H](CCCCN)NC(=O)[C@H](CCCNC(=N)N)NC(=O)[C@H](CSSC[C@H](NC(=O)[C@H](CCCNC(=N)N)NC(=O)[C@H](CO)NC(=O)[C@H](CCCCN)NC(=O)[C@@H]4CCCN4C(=O)[C@H]([C@@H](C)CC)NC(=O)[C@H]([C@@H](C)O)NC(=O)[C@H](CC(=O)O)NC(=O)[C@H]([C@@H](C)CC)NC(=O)[C@@H](NC(=O)[C@H](CO)NC(=O)[C@@H](N)CCCNC(=N)N)CSSC[C@@H](C(=O)NC(C)(C)C(N)=O)NC(=O)[C@H]([C@@H](C)O)NC(=O)CNC3=O)C(=O)N[C@@H]([C@@H](C)O)C(=O)N[C@@H](C)C(=O)N[C@@H](Cc3ccccc3)C(=O)N[C@@H](CCCCN)C(=O)N2)NC(=O)[C@H](Cc2ccccc2)NC(=O)[C@H](CO)NC(=O)[C@H](CC(C)C)NC(=O)[C@H](CCCNC(=N)N)NC(=O)[C@H](Cc2ccc(O)cc2)NC(=O)[C@H](CCCCN)NC1=O [[Lys16,Nva21]ShK-Aib-amide] | 0.722 | 0.03 | 0.483 | – |
| CC[C@H](C)[C@@H]1NC(=O)[C@@H](NC(=O)[C@H](CO)NC(=O)[C@@H](N)CCCNC(=N)N)CSSC[C@@H](C(N)=O)NC(=O)[C@H]([C@@H](C)O)NC(=O)CNC(=O)[C@@H]2CSSC[C@@H]3NC(=O)[C@H](CCCCN)NC(=O)[C@H](Cc4ccccc4)NC(=O)[C@H](C)NC(=O)[C@H]([C@@H](C)O)NC(=O)[C@H](CSSC[C@H](NC(=O)[C@H](Cc4ccc(O)cc4)NC(=O)[C@H](CO)NC(=O)[C@H](CC(C)C)NC(=O)[C@H](CCCNC(=N)N)NC(=O)[C@H](Cc4ccc(O)cc4)NC(=O)[C@H](CCCCN)NC(=O)[C@H](CCSC)NC(=O)[C@H](CO)NC(=O)[C@H](Cc4c[nH]cn4)NC(=O)[C@H](CCCCN)NC3=O)C(=O)N[C@@H](CCCCN)C(=O)N[C@@H](CCCCN)C(=O)N[C@@H]([C@@H](C)O)C(=O)N2)NC(=O)[C@H](CCCNC(=N)N)NC(=O)[C@H](CO)NC(=O)[C@H](CCCCN)NC(=O)[C@@H]2CCCN2C(=O)[C@H]([C@@H](C)CC)NC(=O)[C@H]([C@@H](C)O)NC(=O)[C@H](CC(=O)O)NC1=O [[Lys16,29;Tyr27]ShK-amide] | 1.17 | 0.042 | 0.738 | – |
| CC[C@H](C)[C@@H]1NC(=O)[C@@H](NC(=O)[C@H](CO)NC(=O)[C@@H](N)CCCNC(=N)N)CSSC[C@@H](C(=O)O)NC(=O)[C@H]([C@@H](C)O)NC(=O)CNC(=O)[C@@H]2CSSC[C@@H]3NC(=O)[C@H](CCC(N)=O)NC(=O)[C@H](Cc4ccccc4)NC(=O)[C@H](C)NC(=O)[C@H]([C@@H](C)O)NC(=O)[C@H](CSSC[C@H](NC(=O)[C@H](Cc4ccccc4)NC(=O)[C@H](CO)NC(=O)[C@H](CC(C)C)NC(=O)[C@H](CCCNC(=N)N)NC(=O)[C@H](Cc4ccc(O)cc4)NC(=O)[C@H](CCCCN)NC(=O)[C@H](CCSC)NC(=O)[C@H](CO)NC(=O)[C@H](Cc4c[nH]cn4)NC(=O)[C@H](CCCCN)NC3=O)C(=O)N[C@@H](CCC(=O)O)C(=O)N[C@@H](CCCCN)C(=O)N[C@@H]([C@@H](C)O)C(=O)N2)NC(=O)[C@H](CCCNC(=N)N)NC(=O)[C@H](CO)NC(=O)[C@H](CCCCN)NC(=O)[C@@H]2CCCN2C(=O)[C@H]([C@@H](C)CC)NC(=O)[C@H]([C@@H](C)O)NC(=O)[C@H](CC(=O)O)NC1=O [[Glu29]ShK] | – | 0.142 | 0.73 | 1.96 |
| CC[C@H](C)[C@@H]1NC(=O)[C@@H](NC(=O)[C@H](CO)NC(=O)[C@@H](N)CCCNC(=N)N)CSSC[C@@H](C(=O)O)NC(=O)[C@H]([C@@H](C)O)NC(=O)CNC(=O)[C@@H]2CSSC[C@@H]3NC(=O)[C@H](CCC(N)=O)NC(=O)[C@H](Cc4ccccc4)NC(=O)[C@H](C)NC(=O)[C@H]([C@@H](C)O)NC(=O)[C@H](CSSC[C@H](NC(=O)[C@H](Cc4ccccc4)NC(=O)[C@H](CCC(=O)O)NC(=O)[C@H](CC(C)C)NC(=O)[C@H](CCCNC(=N)N)NC(=O)[C@H](Cc4ccc(O)cc4)NC(=O)[C@H](CCCCN)NC(=O)[C@H](CCSC)NC(=O)[C@H](CO)NC(=O)[C@H](Cc4c[nH]cn4)NC(=O)[C@H](CCCCN)NC3=O)C(=O)N[C@@H](CCCNC(=N)N)C(=O)N[C@@H](CCCCN)C(=O)N[C@@H]([C@@H](C)O)C(=O)N2)NC(=O)[C@H](CCCNC(=N)N)NC(=O)[C@H](CO)NC(=O)[C@H](CCCCN)NC(=O)[C@@H]2CCCN2C(=O)[C@H]([C@@H](C)CC)NC(=O)[C@H]([C@@H](C)O)NC(=O)[C@H](CC(=O)O)NC1=O [[Glu26]ShK] | – | 0.317 | 0.202 | 0.4 |
| CCCC[C@@H]1NC(=O)[C@H](CO)NC(=O)[C@H](Cc2c[nH]cn2)NC(=O)[C@H](CCCCN)NC(=O)[C@@H]2CSSC[C@@H]3NC(=O)[C@H]([C@@H](C)O)NC(=O)[C@H](CCCNC(=N)N)NC(=O)[C@H](CCCCN)NC(=O)[C@H](CSSC[C@H](NC(=O)[C@H](CCCNC(=N)N)NC(=O)[C@H](CO)NC(=O)[C@H](CCCCN)NC(=O)[C@@H]4CCCN4C(=O)[C@H]([C@@H](C)CC)NC(=O)[C@H]([C@@H](C)O)NC(=O)[C@H](CC(=O)O)NC(=O)[C@H]([C@@H](C)CC)NC(=O)[C@@H](NC(=O)[C@H](CO)NC(=O)[C@@H](N)CCCNC(=N)N)CSSC[C@@H](C(N)=O)NC(=O)[C@H]([C@@H](C)O)NC(=O)CNC3=O)C(=O)N[C@@H]([C@@H](C)O)C(=O)N[C@@H](C)C(=O)N[C@@H](Cc3ccccc3)C(=O)N[C@@H](CCCCN)C(=O)N2)NC(=O)[C@H](Cc2ccccc2)NC(=O)[C@H](CO)NC(=O)[C@H](CC(C)C)NC(=O)[C@H](CCCNC(=N)N)NC(=O)[C@H](Cc2ccc(O)cc2)NC(=O)[C@H](CCCCN)NC1=O [[Lys16,29; Nle21,Arg30]ShK-amide] | 2.84 | 0.484 | 1.72 | – |

From patent US20120121591A1 (priority 2009, published 2012)
